Literature values in US20240165002A1, “Compositions Incorporating Avobenzone Complexes” (University of Cincinnati, priority 2022, published 2024).

Experiments:
[1] = at 360 nm

duration of photoprotection once exposed to sun (once exposed to sun): 30 min
photostability (upon exposure to light, keto-enol tautomerization): poor photostability
molar absorption coefficient [1]: 33,756 L/(mol·cm)
SMILES: COc1ccc(C(=O)CC(=O)c2ccc(C(C)(C)C)cc2)cc1 [Avobenzone, 1-(4-methoxyphenyl)-3-(4-tertbutylphenyl)-propane-1,3-dione]
